# How the values were obtained:
# healthy subjects [1] = assay: SAD study: safety and tolerability; assay type: in vivo, human
# [2] = monkeys; cited from earlier work
# healthy subjects [3] = assay: MAD study: safety and tolerability; assay type: in vivo, human
# [4] = SAD Parts A and C, Total TS‐134 fed (n = 8)
# [5] = SAD, 20 mg fasted treatment group
# [6] = MAD Cohort 1, 5–10 mg fed (n = 8)
# [7] = MAD Cohort 2, 5–20 mg fed (n = 8)
# [8] = MAD Cohort 3, 5–40 mg fed (n = 8)
# [9] = MAD Cohort 4, 5–60 mg fed (n = 8)
# [10] = MAD Cohort 5, 10–80 mg fed (n = 8)
# [11] = MAD Cohort 6, 10–80 mg fed (n = 7)
# [12] = MAD, 80 mg MP in Cohort 5, data not shown
smiles,measurement,setting,value
"CC(C)[C@@H]1CC[C@@H](C)C[C@H]1OC(=O)O[C@@H](C)OC(=O)[C@H]1[C@@H]2C[C@H](F)[C@@](N)(C(=O)O)[C@@H]21.O=S(=O)(O)c1ccccc1 [TS‐134, (1S,2S,3S,5R,6S)‐2‐amino‐3‐ fluoro‐6‐({(1S)‐1‐[({[(1R,2S,5R)‐5‐methyl‐2‐(propan‐2‐yl)cyclohexyl]oxy}carbonyl)oxy]ethoxy}carbonyl)bicyclo[3.1.0]hexane‐2‐carboxylic acid monobenzenesulfonate]",Somnolence,healthy subjects [1]; [4],0 Number of subjects (%)
same,Total number of TEAEs,healthy subjects [1]; [4],7
same,Vomiting,healthy subjects [1]; [4],1 (12.5) Number of subjects (%)
same,reports of severe nausea,healthy subjects [1]; [5],1 report
same,reports of severe vomiting,healthy subjects [1]; [5],2 reports
same,dose up to which a single dose was tolerated,"healthy subjects [1]; SAD, single oral dose TS‐134 solution",up to 10 mg
same,deaths or serious adverse events,healthy subjects [1]; both studies,no deaths or serious adverse events
same,conversion of the prodrug into MGS0008 after oral administration,[2],rapidly converted into MGS0008
same,dose up to which multiple dose titration was tolerated,"healthy subjects [3]; 14‐day MAD, titration schemes under fed conditions",up to 80 mg
same,Abnormal dreams,healthy subjects [3]; [6],0 Number of subjects (%)
same,Dizziness,healthy subjects [3]; [6],0 Number of subjects (%)
same,Headache,healthy subjects [3]; [6],1 (12.5) Number of subjects (%)
same,Insomnia,healthy subjects [3]; [6],0 Number of subjects (%)
same,Nausea,healthy subjects [3]; [6],2 (25.0) Number of subjects (%)
same,Number of subjects with at least 1 TEAE,healthy subjects [3]; [6],5 (62.5) Number of subjects (%)
same,Post lumbar puncture syndrome,healthy subjects [3]; [6],0 Number of subjects (%)
same,Pruritus,healthy subjects [3]; [6],0 Number of subjects (%)
same,Somnolence,healthy subjects [3]; [6],3 (37.5) Number of subjects (%)
same,Total number of TEAEs,healthy subjects [3]; [6],11
same,Vomiting,healthy subjects [3]; [6],0 Number of subjects (%)
same,Abnormal dreams,healthy subjects [3]; [7],0 Number of subjects (%)
same,Dizziness,healthy subjects [3]; [7],1 (12.5) Number of subjects (%)
same,Headache,healthy subjects [3]; [7],3 (37.5) Number of subjects (%)
same,Insomnia,healthy subjects [3]; [7],0 Number of subjects (%)
same,Nausea,healthy subjects [3]; [7],3 (37.5) Number of subjects (%)
same,Number of subjects with at least 1 TEAE,healthy subjects [3]; [7],5 (62.5) Number of subjects (%)
same,Post lumbar puncture syndrome,healthy subjects [3]; [7],0 Number of subjects (%)
same,Pruritus,healthy subjects [3]; [7],0 Number of subjects (%)
same,Somnolence,healthy subjects [3]; [7],1 (12.5) Number of subjects (%)
same,Total number of TEAEs,healthy subjects [3]; [7],17
same,Vomiting,healthy subjects [3]; [7],0 Number of subjects (%)
same,Abnormal dreams,healthy subjects [3]; [8],0 Number of subjects (%)
same,Dizziness,healthy subjects [3]; [8],3 (37.5) Number of subjects (%)
same,Headache,healthy subjects [3]; [8],3 (37.5) Number of subjects (%)
same,Insomnia,healthy subjects [3]; [8],0 Number of subjects (%)
same,Nausea,healthy subjects [3]; [8],2 (25.0) Number of subjects (%)
same,Number of subjects with at least 1 TEAE,healthy subjects [3]; [8],5 (62.5) Number of subjects (%)
same,Post lumbar puncture syndrome,healthy subjects [3]; [8],0 Number of subjects (%)
same,Pruritus,healthy subjects [3]; [8],0 Number of subjects (%)
same,Somnolence,healthy subjects [3]; [8],1 (12.5) Number of subjects (%)
same,Total number of TEAEs,healthy subjects [3]; [8],16
same,Vomiting,healthy subjects [3]; [8],1 (12.5) Number of subjects (%)
same,Abnormal dreams,healthy subjects [3]; [9],2 (25.0) Number of subjects (%)
same,Dizziness,healthy subjects [3]; [9],1 (12.5) Number of subjects (%)
same,Headache,healthy subjects [3]; [9],5 (62.5) Number of subjects (%)
same,Insomnia,healthy subjects [3]; [9],3 (37.5) Number of subjects (%)
same,Nausea,healthy subjects [3]; [9],3 (37.5) Number of subjects (%)
same,Number of subjects with at least 1 TEAE,healthy subjects [3]; [9],8 (100) Number of subjects (%)
same,Post lumbar puncture syndrome,healthy subjects [3]; [9],0 Number of subjects (%)
same,Pruritus,healthy subjects [3]; [9],1 (12.5) Number of subjects (%)
same,Somnolence,healthy subjects [3]; [9],1 (12.5) Number of subjects (%)
same,Total number of TEAEs,healthy subjects [3]; [9],26
same,Vomiting,healthy subjects [3]; [9],2 (25.0) Number of subjects (%)
same,Abnormal dreams,healthy subjects [3]; [10],0 Number of subjects (%)
same,Dizziness,healthy subjects [3]; [10],0 Number of subjects (%)
same,Headache,healthy subjects [3]; [10],3 (37.5) Number of subjects (%)
same,Insomnia,healthy subjects [3]; [10],0 Number of subjects (%)
same,Nausea,healthy subjects [3]; [10],3 (37.5) Number of subjects (%)
same,Number of subjects with at least 1 TEAE,healthy subjects [3]; [10],7 (87.5) Number of subjects (%)
same,Post lumbar puncture syndrome,healthy subjects [3]; [10],0 Number of subjects (%)
same,Pruritus,healthy subjects [3]; [10],0 Number of subjects (%)
same,Somnolence,healthy subjects [3]; [10],1 (12.5) Number of subjects (%)
same,Total number of TEAEs,healthy subjects [3]; [10],30
same,Vomiting,healthy subjects [3]; [10],0 Number of subjects (%)
same,Abnormal dreams,healthy subjects [3]; [11],0 Number of subjects (%)
same,Dizziness,healthy subjects [3]; [11],3 (42.9) Number of subjects (%)
same,Headache,healthy subjects [3]; [11],1 (14.3) Number of subjects (%)
same,Insomnia,healthy subjects [3]; [11],1 (14.3) Number of subjects (%)
same,Nausea,healthy subjects [3]; [11],2 (28.6) Number of subjects (%)
same,Number of subjects with at least 1 TEAE,healthy subjects [3]; [11],6 (85.7) Number of subjects (%)
same,Post lumbar puncture syndrome,healthy subjects [3]; [11],0 Number of subjects (%)
same,Pruritus,healthy subjects [3]; [11],3 (42.9) Number of subjects (%)
same,Somnolence,healthy subjects [3]; [11],2 (28.6) Number of subjects (%)
same,Total number of TEAEs,healthy subjects [3]; [11],25
same,Vomiting,healthy subjects [3]; [11],0 Number of subjects (%)
same,Abnormal dreams,healthy subjects [3]; MAD Total TS‐134 (n = 47),2 (4.3) Number of subjects (%)
same,Dizziness,healthy subjects [3]; MAD Total TS‐134 (n = 47),8 (17.0) Number of subjects (%)
same,Headache,healthy subjects [3]; MAD Total TS‐134 (n = 47),16 (34.0) Number of subjects (%)
same,Insomnia,healthy subjects [3]; MAD Total TS‐134 (n = 47),4 (8.5) Number of subjects (%)
same,Nausea,healthy subjects [3]; MAD Total TS‐134 (n = 47),15 (31.9) Number of subjects (%)
same,Number of subjects with at least 1 TEAE,healthy subjects [3]; MAD Total TS‐134 (n = 47),36(76.6) Number of subjects (%)
same,Post lumbar puncture syndrome,healthy subjects [3]; MAD Total TS‐134 (n = 47),0 Number of subjects (%)
same,Pruritus,healthy subjects [3]; MAD Total TS‐134 (n = 47),4 (8.5) Number of subjects (%)
same,Somnolence,healthy subjects [3]; MAD Total TS‐134 (n = 47),9 (19.1) Number of subjects (%)
same,Total number of TEAEs,healthy subjects [3]; MAD Total TS‐134 (n = 47),125
same,Vomiting,healthy subjects [3]; MAD Total TS‐134 (n = 47),3 (6.4) Number of subjects (%)
same,discontinuations due to TEAEs,healthy subjects [3]; MAD study,no discontinuations due to TEAEs
same,reports of severe anxiety,healthy subjects [3]; [12],1 report
same,reports of severe fatigue,healthy subjects [3]; [12],1 report
same,incidence of dizziness,"healthy subjects [3]; MAD, total TS‐134 group",17.0%
same,incidence of headache,"healthy subjects [3]; MAD, total TS‐134 group",34.0%
same,incidence of nausea,"healthy subjects [3]; MAD, total TS‐134 group",31.9%
same,incidence of somnolence,"healthy subjects [3]; MAD, total TS‐134 group",19.1%
same,incidence of vomiting,"healthy subjects [3]; MAD, total TS‐134 group",6.4%

# Source: publication PMC7576618 (British Journal of Clinical Pharmacology, 2020)
